Assay results taken from the CheMixHub viscosity set.
Values joined by “and” are separate entries in the source; they are usually repeats but may differ in a detail not shown here. Equal entries are not always repeated. ± gives the uncertainty stated by the source.

Experiment: xn = mol fraction of the nth substance listed

CCN(CC)CC + OCCO
101 kPa
Settings | viscosity [mPa·s]
296.95 K, x1 = 0.143 | 16.28 ± 0.14
297.85 K, x1 = 0.268 | 9.85 ± 0.14
297.85 K, x1 = 0.514 | 2.7 ± 0.06
297.85 K, x1 = 0.789 | 0.704 ± 0.021
301.85 K, x1 = 0.143 | 13.5 ± 0.14
302.85 K, x1 = 0.268 | 7.9 ± 0.09
302.85 K, x1 = 0.789 | 0.644 ± 0.007
306.45 K, x1 = 0.143 | 11.7 ± 0.11
307.85 K, x1 = 0.268 | 6.79 ± 0.07
307.85 K, x1 = 0.514 | 2.05 ± 0.02
307.85 K, x1 = 0.789 | 0.589 ± 0.006
312.95 K, x1 = 0.268 | 5.7 ± 0.06
312.95 K, x1 = 0.514 | 1.79 ± 0.02
312.95 K, x1 = 0.789 | 0.543 ± 0.006
313.45 K, x1 = 0.143 | 9.46 ± 0.09
317.75 K, x1 = 0.268 | 4.91 ± 0.05
317.75 K, x1 = 0.514 | 1.61 ± 0.02
317.75 K, x1 = 0.789 | 0.514 ± 0.005
320.45 K, x1 = 0.143 | 7.64 ± 0.09
322.75 K, x1 = 0.268 | 4.18 ± 0.04
322.75 K, x1 = 0.514 | 1.45 ± 0.01

CC1CCCCC1O (stereo unspecified) + c1ccccc1
293.15 K, 101 kPa
Settings | viscosity
x2 = 0.33 | 3.2 ± 0.1 mPa·s
x2 = 0.5 | 1.8 ± 0.1 mPa·s
x2 = 0.6 | 1.5 ± 0.1 mPa·s
x2 = 0.7 | 1.3 ± 0.1 mPa·s
x2 = 0.8 | 1.1 ± 0.1 mPa·s and 1 ± 0.1 mPa·s

CCCC(C)=O + c1ccccc1
303.15 K, 101.32 kPa
Settings | viscosity [mPa·s]
x2 = 0.1304 | 0.469 ± 0.004
x2 = 0.2771 | 0.475 ± 0.004
x2 = 0.3294 | 0.484 ± 0.004
x2 = 0.4869 | 0.499 ± 0.004
x2 = 0.6257 | 0.515 ± 0.004
x2 = 0.6946 | 0.522 ± 0.004
x2 = 0.7707 | 0.532 ± 0.004
x2 = 0.9042 | 0.553 ± 0.004

CCCOC(C)=O + c1ccccc1
Settings | viscosity [mPa·s]
298.15 K, 101.3 kPa, x2 = 0.246 | 0.537 ± 0.014
298.15 K, 101.3 kPa, x2 = 0.4714 | 0.537 ± 0.014
298.15 K, 101.3 kPa, x2 = 0.6809 | 0.551 ± 0.015
298.15 K, 101.3 kPa, x2 = 0.8404 | 0.563 ± 0.015
303.15 K, 101.33 kPa, x2 = 0.0633 | 0.514 ± 0.005
303.15 K, 101.33 kPa, x2 = 0.1259 | 0.515 ± 0.005
303.15 K, 101.33 kPa, x2 = 0.1865 | 0.513 ± 0.005
303.15 K, 101.33 kPa, x2 = 0.3006 | 0.512 ± 0.005
303.15 K, 101.33 kPa, x2 = 0.4062 | 0.513 ± 0.005
303.15 K, 101.33 kPa, x2 = 0.5133 | 0.514 ± 0.005
303.15 K, 101.33 kPa, x2 = 0.6141 | 0.517 ± 0.005
303.15 K, 101.33 kPa, x2 = 0.7078 | 0.524 ± 0.005
303.15 K, 101.33 kPa, x2 = 0.7972 | 0.529 ± 0.005
303.15 K, 101.33 kPa, x2 = 0.8812 | 0.539 ± 0.005
303.15 K, 101.33 kPa, x2 = 0.9631 | 0.551 ± 0.005
308.15 K, 101.3 kPa, x2 = 0.246 | 0.477 ± 0.013
308.15 K, 101.3 kPa, x2 = 0.4714 | 0.48 ± 0.013
308.15 K, 101.3 kPa, x2 = 0.8404 | 0.49 ± 0.013
313.15 K, 101.33 kPa, x2 = 0.1951 | 0.448 ± 0.005
313.15 K, 101.33 kPa, x2 = 0.4024 | 0.449 ± 0.005
313.15 K, 101.33 kPa, x2 = 0.5082 | 0.453 ± 0.005
313.15 K, 101.33 kPa, x2 = 0.6029 | 0.455 ± 0.005
313.15 K, 101.33 kPa, x2 = 0.8029 | 0.466 ± 0.005

CCN(CC)CC + c1ccccc1
303.15 K, 101 kPa
Settings | viscosity [mPa·s]
x1 = 0.01024 | 0.5567 ± 0.0048
x1 = 0.02091 | 0.5513 ± 0.0048
x1 = 0.03113 | 0.545 ± 0.005
x1 = 0.03955 | 0.5386 ± 0.0048
x1 = 0.05006 | 0.5341 ± 0.0046
x1 = 0.06182 | 0.5287 ± 0.0047
x1 = 0.07124 | 0.5215 ± 0.0048
x1 = 0.08041 | 0.5162 ± 0.0046
x1 = 0.09192 | 0.5096 ± 0.0046
x1 = 0.09995 | 0.5041 ± 0.0047

ClC(Cl)(Cl)Cl + c1ccncc1
298.15 K, 101 kPa
Settings | viscosity [mPa·s]
x1 = 0.09 | 0.9206 ± 0.0078
x1 = 0.1492 | 0.9404 ± 0.008
x1 = 0.2381 | 0.9623 ± 0.0081
x1 = 0.293 | 0.9729 ± 0.0082
x1 = 0.37 | 0.9819 ± 0.0083
x1 = 0.4337 | 0.9847 ± 0.0083
x1 = 0.4561 | 0.9841 ± 0.0083
x1 = 0.4972 | 0.9842 ± 0.0083
x1 = 0.6006 | 0.9751 ± 0.0082
x1 = 0.738 | 0.9538 ± 0.0081
x1 = 0.7863 | 0.943 ± 0.008
x1 = 0.8636 | 0.9286 ± 0.0079
x1 = 0.9447 | 0.912 ± 0.0077

Oc1nc(O)nc(O)n1 + c1ccncc1
Settings | viscosity [mPa·s]
298.15 K, 101 kPa, x1 = 0.0199 | 1.038 ± 0.21
